Measurements from PMC6812009, “Covalent Aurora A regulation by the metabolic integrator coenzyme A” (Redox Biology, 2019).

How the values were obtained:
Test in all cases: Kinase profiling screen (radioactive filter-binding assay)
Type in all cases: biochemical
CAMK1 = CAMK1 (Homo sapiens, UniProt Q14012); conditions: 100 μM compound, 50 μM ATP; read-out: Kinase activity, % of activity in the absence of inhibitor
Summary of the method: (§1)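 Residual kinase activity is read in duplicate wells containing 100 μM final test compound (CoA, dpCoA or ADP). Recombinant kinases use model substrates at ATP levels optimal for each enzyme, across a 117-kinase screen.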

CHK2 = CHK2 (Homo sapiens, UniProt O96017); conditions: 100 μM compound, 20 μM ATP; read-out: Kinase activity, % of activity in the absence of inhibitor
Sequence of CHK2 (O96017 whole entry): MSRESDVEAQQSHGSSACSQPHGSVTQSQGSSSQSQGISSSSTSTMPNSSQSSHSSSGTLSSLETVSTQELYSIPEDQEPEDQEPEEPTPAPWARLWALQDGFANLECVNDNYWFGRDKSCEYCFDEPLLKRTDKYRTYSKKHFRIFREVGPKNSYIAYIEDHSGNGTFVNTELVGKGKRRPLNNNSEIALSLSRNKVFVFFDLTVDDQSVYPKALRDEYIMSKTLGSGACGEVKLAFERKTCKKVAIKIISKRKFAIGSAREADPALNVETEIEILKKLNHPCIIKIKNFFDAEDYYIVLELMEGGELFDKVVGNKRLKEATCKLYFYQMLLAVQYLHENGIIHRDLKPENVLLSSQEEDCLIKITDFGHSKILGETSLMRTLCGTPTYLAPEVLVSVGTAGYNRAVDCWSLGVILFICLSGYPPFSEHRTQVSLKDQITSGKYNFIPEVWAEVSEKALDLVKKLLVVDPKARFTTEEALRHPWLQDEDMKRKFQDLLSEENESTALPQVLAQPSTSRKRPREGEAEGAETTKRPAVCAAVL
Summary of the method: as §1

EF2K = EF2K (Homo sapiens, UniProt O00418); conditions: 100 μM compound, 5 μM ATP; read-out: Kinase activity, % of activity in the absence of inhibitor
Summary of the method: as §1

EPH-B2 = biological target: T1, EPH-B2 (Homo sapiens, UniProt P29323); conditions: 100 μM compound, 20 μM ATP; read-out: Kinase activity, % of activity in the absence of inhibitor
T1 sequence (P29323 19-1055): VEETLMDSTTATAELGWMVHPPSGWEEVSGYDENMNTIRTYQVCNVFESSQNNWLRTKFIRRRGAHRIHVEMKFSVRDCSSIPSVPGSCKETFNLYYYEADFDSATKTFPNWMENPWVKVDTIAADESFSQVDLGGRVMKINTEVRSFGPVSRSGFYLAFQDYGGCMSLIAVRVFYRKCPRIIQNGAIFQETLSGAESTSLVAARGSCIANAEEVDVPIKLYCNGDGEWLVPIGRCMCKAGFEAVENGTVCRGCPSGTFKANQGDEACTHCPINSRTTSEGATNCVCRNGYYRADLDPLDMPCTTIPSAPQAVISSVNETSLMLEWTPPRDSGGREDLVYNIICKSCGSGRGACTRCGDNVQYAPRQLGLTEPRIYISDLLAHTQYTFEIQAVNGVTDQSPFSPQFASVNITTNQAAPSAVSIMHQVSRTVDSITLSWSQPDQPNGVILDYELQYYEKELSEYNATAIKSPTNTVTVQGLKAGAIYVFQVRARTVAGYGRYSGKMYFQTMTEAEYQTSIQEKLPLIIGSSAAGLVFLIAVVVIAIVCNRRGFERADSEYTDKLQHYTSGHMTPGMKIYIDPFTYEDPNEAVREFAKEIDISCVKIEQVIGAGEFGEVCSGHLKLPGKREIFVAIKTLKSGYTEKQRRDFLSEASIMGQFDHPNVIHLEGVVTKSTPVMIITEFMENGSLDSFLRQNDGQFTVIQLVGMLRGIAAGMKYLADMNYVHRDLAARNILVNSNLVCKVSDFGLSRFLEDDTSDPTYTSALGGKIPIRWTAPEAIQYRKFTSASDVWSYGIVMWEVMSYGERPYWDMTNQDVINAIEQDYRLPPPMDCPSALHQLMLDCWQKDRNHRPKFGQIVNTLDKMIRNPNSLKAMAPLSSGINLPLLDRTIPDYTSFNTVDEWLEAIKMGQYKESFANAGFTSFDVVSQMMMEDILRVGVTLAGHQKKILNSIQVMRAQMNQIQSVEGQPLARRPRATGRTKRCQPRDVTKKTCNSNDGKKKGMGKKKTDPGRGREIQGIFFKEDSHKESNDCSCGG
Summary of the method: as §1

FGF-R1 = FGF-R1 (Homo sapiens, UniProt P11362); conditions: for activity at 100 µM: 100 μM compound, 20 μM ATP, read-out: Kinase activity, % of activity in the absence of inhibitor
Sequence of FGF-R1 (P11362 22-822): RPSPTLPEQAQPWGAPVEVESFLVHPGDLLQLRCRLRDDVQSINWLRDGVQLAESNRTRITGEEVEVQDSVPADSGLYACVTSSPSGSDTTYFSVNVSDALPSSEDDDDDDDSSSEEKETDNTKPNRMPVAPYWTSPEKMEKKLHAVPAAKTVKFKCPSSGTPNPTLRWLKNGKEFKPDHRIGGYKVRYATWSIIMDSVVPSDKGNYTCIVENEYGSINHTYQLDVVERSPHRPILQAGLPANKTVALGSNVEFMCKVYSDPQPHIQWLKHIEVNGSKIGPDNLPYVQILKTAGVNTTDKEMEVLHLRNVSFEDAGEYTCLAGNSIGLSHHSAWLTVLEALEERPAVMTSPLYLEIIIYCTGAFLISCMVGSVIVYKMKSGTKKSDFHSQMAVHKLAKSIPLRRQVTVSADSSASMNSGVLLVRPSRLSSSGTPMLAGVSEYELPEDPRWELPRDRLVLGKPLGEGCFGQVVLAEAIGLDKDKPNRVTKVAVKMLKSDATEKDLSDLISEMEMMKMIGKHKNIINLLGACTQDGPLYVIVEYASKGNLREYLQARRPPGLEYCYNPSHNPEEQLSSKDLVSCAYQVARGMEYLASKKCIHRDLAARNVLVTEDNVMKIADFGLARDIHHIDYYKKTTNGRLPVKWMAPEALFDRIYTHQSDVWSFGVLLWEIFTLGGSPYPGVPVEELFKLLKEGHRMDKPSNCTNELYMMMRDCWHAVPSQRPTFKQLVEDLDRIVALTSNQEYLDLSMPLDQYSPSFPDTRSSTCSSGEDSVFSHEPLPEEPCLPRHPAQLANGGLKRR
Summary of the method: as §1

IKKε = biological target: T2, IKKε (Homo sapiens, UniProt Q14164); conditions: 100 μM compound, 50 μM ATP; read-out: Kinase activity, % of activity in the absence of inhibitor
T2 sequence (Q14164 1-716): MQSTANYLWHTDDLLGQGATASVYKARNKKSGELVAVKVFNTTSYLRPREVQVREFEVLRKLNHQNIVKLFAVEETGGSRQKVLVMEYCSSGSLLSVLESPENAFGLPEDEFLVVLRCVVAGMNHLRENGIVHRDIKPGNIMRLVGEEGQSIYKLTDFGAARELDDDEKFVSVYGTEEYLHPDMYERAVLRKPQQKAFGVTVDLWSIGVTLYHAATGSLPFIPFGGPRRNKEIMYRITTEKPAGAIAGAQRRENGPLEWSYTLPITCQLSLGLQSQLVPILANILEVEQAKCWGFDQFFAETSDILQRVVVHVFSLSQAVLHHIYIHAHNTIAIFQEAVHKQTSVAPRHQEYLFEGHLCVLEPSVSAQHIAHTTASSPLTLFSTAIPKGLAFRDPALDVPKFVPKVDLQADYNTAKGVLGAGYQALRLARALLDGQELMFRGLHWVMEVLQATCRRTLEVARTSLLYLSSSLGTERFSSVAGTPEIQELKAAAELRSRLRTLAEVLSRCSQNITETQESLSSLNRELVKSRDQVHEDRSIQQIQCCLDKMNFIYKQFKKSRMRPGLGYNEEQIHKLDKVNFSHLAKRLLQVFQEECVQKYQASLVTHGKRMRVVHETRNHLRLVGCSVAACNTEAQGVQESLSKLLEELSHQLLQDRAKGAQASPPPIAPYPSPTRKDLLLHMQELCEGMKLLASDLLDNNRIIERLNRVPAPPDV
Summary of the method: as §1

PHKγ1 = PHKγ1 (Homo sapiens, UniProt Q16816); conditions: 100 μM compound, 50 μM ATP; read-out: Kinase activity, % of activity in the absence of inhibitor
Sequence of PHKγ1 (Q16816 whole entry): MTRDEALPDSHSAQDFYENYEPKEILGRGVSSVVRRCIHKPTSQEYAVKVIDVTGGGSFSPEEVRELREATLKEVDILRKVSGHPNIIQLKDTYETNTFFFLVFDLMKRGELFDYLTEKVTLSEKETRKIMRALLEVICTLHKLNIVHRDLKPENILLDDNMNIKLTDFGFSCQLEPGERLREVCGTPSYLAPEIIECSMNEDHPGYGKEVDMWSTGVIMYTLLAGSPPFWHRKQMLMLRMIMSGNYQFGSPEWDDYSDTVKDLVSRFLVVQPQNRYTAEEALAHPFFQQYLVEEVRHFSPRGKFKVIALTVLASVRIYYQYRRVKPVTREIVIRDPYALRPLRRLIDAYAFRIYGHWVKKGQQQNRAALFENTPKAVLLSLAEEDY
Summary of the method: as §1

PIM1 = PIM1 (Homo sapiens, UniProt P11309); conditions: 100 μM compound, 20 μM ATP; read-out: Kinase activity, % of activity in the absence of inhibitor
Sequence of PIM1 (P11309 whole entry): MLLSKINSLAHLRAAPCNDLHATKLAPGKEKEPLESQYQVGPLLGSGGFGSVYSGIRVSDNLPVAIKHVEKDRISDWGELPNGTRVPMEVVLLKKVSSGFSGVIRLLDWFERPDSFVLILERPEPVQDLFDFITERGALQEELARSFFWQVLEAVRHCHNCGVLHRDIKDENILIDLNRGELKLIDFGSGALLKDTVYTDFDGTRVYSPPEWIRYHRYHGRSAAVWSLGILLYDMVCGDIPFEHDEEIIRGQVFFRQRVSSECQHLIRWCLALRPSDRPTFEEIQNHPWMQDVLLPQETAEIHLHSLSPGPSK
Summary of the method: as §1

PKCβ = PKCβ (Homo sapiens, UniProt P05771); conditions: 100 μM compound, 50 μM ATP; read-out: Kinase activity, % of activity in the absence of inhibitor
Sequence of PKCβ (P05771 whole entry): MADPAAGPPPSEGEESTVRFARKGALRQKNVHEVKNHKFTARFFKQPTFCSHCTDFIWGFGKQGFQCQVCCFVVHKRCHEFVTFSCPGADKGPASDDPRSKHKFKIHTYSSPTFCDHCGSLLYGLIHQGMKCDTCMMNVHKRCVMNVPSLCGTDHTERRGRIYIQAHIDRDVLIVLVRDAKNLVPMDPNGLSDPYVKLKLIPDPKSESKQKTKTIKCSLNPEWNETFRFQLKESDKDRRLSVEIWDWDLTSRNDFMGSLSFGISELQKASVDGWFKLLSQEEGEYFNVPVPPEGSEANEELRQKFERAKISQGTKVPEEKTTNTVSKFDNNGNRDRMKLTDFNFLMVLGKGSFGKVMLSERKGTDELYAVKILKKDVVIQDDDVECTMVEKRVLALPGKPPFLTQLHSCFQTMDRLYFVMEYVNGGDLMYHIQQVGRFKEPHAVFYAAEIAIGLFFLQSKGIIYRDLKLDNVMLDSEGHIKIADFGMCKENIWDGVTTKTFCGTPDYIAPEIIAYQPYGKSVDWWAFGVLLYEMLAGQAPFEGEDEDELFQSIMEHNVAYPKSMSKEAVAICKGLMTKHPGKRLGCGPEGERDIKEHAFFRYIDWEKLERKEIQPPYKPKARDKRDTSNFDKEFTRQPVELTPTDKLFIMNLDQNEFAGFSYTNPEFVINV
Summary of the method: as §1

Row | Structure (SMILES) | activity at 100 µM (CAMK1) | activity at 100 µM (CHK2) | activity at 100 µM (EF2K) | activity at 100 µM (EPH-B2) | activity at 100 µM (FGF-R1) | FGFR1 inhibition (in words) (FGF-R1; kinase profiling, 100 μM) | activity at 100 µM (IKKε) | activity at 100 µM (PHKγ1) | activity at 100 µM (PIM1) | activity at 100 µM (PKCβ)
1 | CC(C)(COP(=O)(O)OP(=O)(O)OC[C@H]1O[C@@H](n2cnc3c(N)ncnc32)[C@H](O)[C@@H]1OP(=O)(O)O)[C@@H](O)C(=O)NCCC(=O)NCCS [CoA, Coenzyme A] | 124% | 88.9% | 67.1% | 117% | 60% | modestly inhibited | 125% | 105% | 103% | 118%
2 | CC(C)(COP(=O)(O)OP(=O)(O)OCC1OC(n2cnc3c(N)ncnc32)C(O)C1O)C(O)C(=O)NCCC(=O)NCCS (stereo not shown) [dpCoA, dephospho-CoA] | 126% | 56% | 103% | 91.1% | 31.4% |  | 91.4% | 90.9% | 97.7% | 105%
3 | Nc1ncnc2c1ncn2C1OC(COP(=O)(O)OP(=O)(O)O)C(O)C1O (stereo not shown) [ADP] | 80.1% | 43.2% | 86.2% | 14.3% | 41.7% |  | 73.8% | 75.6% | 46.1% | 79.2%
